We go through 14 compounds from ChEMBL document CHEMBL1649393, “Synthesis and antimicrobial activity of thiosemicarbazides, s-triazoles and their Mannich bases bearing 3-chlorophenyl moiety” (2011).

Common to all, as to type: functional
Assay [1] concerns Staphylococcus aureus. The assay is described as follows: Antimicrobial activity against Staphylococcus aureus ATCC 25923 after 18 hrs by broth microdilution method. To be noted: ATCC 25923, 18 h.
In assay [2] the test system is Staphylococcus aureus. The assay is described as follows: Antimicrobial activity against Staphylococcus aureus ATCC 6538 after 18 hrs by broth microdilution method. The settings on record: ATCC 6538, 18 h.
For assay [3], the system named is Staphylococcus epidermidis. As to the kind of experiment: Antimicrobial activity against Staphylococcus epidermidis ATCC 12228 after 18 hrs by broth microdilution method. The settings on record: ATCC 12228, 18 h.
The next assay concerns Bacillus subtilis. As to the kind of experiment: Antimicrobial activity against Bacillus subtilis ATCC […] after 18 hrs by broth microdilution method.
Another assay deals with Bacillus cereus. The assay is described as follows: Antimicrobial activity against Bacillus cereus ATCC 10876 after 18 hrs by broth microdilution method. The settings on record: ATCC 10876, 18 h.
A further assay relates to Micrococcus luteus. As to the kind of experiment: Antimicrobial activity against Micrococcus luteus ATCC 10240 after 18 hrs by broth microdilution method. The settings on record: ATCC 10240, 18 h.

SMILES strings stand for the structures. Converted amounts (≈) assume the structure as drawn.

For the compound `O=C(NNC(=S)Nc1ccccc1)c1cccc(Cl)c1`, the MIC (against Staphylococcus aureus [1]; with Staphylococcus aureus [2]; in assay [3]; against Bacillus subtilis; in the assay on Bacillus cereus; with Micrococcus luteus) was 125 µg/mL (≈ 409 µM) in each case.
`Cc1ccc(NC(=S)NNC(=O)c2cccc(Cl)c2)cc1`: the MIC was 62.5 µg/mL (≈ 195 µM) against Staphylococcus aureus [1]; 62.5 µg/mL (≈ 195 µM) with Staphylococcus aureus [2]; over 1000 µg/mL in assay [3]; over 1000 µg/mL against Bacillus subtilis; over 1000 µg/mL against Bacillus cereus; over 1000 µg/mL in the assay with Micrococcus luteus.
Turning to `COc1ccc(NC(=S)NNC(=O)c2cccc(Cl)c2)cc1`, the MIC against Staphylococcus aureus [1] was 62.5 µg/mL (≈ 186 µM); against Staphylococcus aureus [2], 125 µg/mL (≈ 372 µM); in assay [3] it was 125 µg/mL (≈ 372 µM); in the assay on Bacillus subtilis, 125 µg/mL (≈ 372 µM); against Bacillus cereus, 125 µg/mL (≈ 372 µM); in the assay on Micrococcus luteus, 62.5 µg/mL (≈ 186 µM).
Take `O=C(NNC(=S)Nc1ccc(Br)cc1)c1cccc(Cl)c1`: the minimum inhibitory concentration (MIC) in the assay with Staphylococcus aureus [1] turned out to be 15.6 µg/mL (≈ 40.6 µM); with Staphylococcus aureus [2], 15.6 µg/mL (≈ 40.6 µM); in assay [3], 15.6 µg/mL (≈ 40.6 µM); in the assay with Bacillus subtilis, 31.2 µg/mL (≈ 81.2 µM); in the assay on Bacillus cereus it was 15.6 µg/mL (≈ 40.6 µM); in the assay on Micrococcus luteus, 15.6 µg/mL (≈ 40.6 µM).
For `O=C(NNC(=S)Nc1ccccc1Br)c1cccc(Cl)c1`, the MIC stood at 62.5 µg/mL (≈ 162 µM) in the assay on Staphylococcus aureus [1]; 31.2 µg/mL (≈ 81.2 µM) against Staphylococcus aureus [2]; 125 µg/mL (≈ 325 µM) in assay [3]; 125 µg/mL (≈ 325 µM) against Bacillus subtilis; 62.5 µg/mL (≈ 162 µM) in the assay with Bacillus cereus; 62.5 µg/mL (≈ 162 µM) against Micrococcus luteus.
With `O=C(NNC(=S)Nc1ccc(I)cc1)c1cccc(Cl)c1`, the MIC with Staphylococcus aureus [1] amounted to 31.2 µg/mL (≈ 72.4 µM); in the assay on Staphylococcus aureus [2], 31.2 µg/mL (≈ 72.4 µM); in assay [3], 31.2 µg/mL (≈ 72.4 µM); against Bacillus subtilis, 31.2 µg/mL (≈ 72.4 µM); in the assay on Bacillus cereus it was 15.6 µg/mL (≈ 36.2 µM); against Micrococcus luteus, 31.2 µg/mL (≈ 72.4 µM).
As to `O=C(NNC(=S)Nc1ccccc1I)c1cccc(Cl)c1`, the MIC against Staphylococcus aureus [1] is 31.2 µg/mL (≈ 72.4 µM); against Staphylococcus aureus [2] it was 31.2 µg/mL (≈ 72.4 µM); in assay [3], 31.2 µg/mL (≈ 72.4 µM); with Bacillus subtilis, 15.6 µg/mL (≈ 36.2 µM); in the assay on Bacillus cereus, 31.2 µg/mL (≈ 72.4 µM); in the assay on Micrococcus luteus it was 31.2 µg/mL (≈ 72.4 µM).
As to `O=C(NNC(=S)Nc1ccc(Cl)cc1)c1cccc(Cl)c1`, the MIC against Staphylococcus aureus [1] is 31.2 µg/mL (≈ 91.8 µM); against Staphylococcus aureus [2], 31.2 µg/mL (≈ 91.8 µM); in assay [3] it was 31.2 µg/mL (≈ 91.8 µM); in the assay with Bacillus subtilis, 31.2 µg/mL (≈ 91.8 µM); in the assay with Bacillus cereus, 62.5 µg/mL (≈ 184 µM); in the assay with Micrococcus luteus, 31.2 µg/mL (≈ 91.8 µM).
Consider `O=C(NNC(=S)Nc1cc(F)ccc1F)c1cccc(Cl)c1`, for which the minimum inhibitory concentration (MIC) against Staphylococcus aureus [1] was 62.5 µg/mL (≈ 183 µM); against Staphylococcus aureus [2] it was 62.5 µg/mL (≈ 183 µM); in assay [3], 125 µg/mL (≈ 366 µM); in the assay on Bacillus subtilis, 125 µg/mL (≈ 366 µM); in the assay on Bacillus cereus, 125 µg/mL (≈ 366 µM); against Micrococcus luteus it was 62.5 µg/mL (≈ 183 µM).
As for `O=C(NNC(=S)Nc1c(F)cccc1F)c1cccc(Cl)c1`, the MIC stood at 125 µg/mL (≈ 366 µM) with Staphylococcus aureus [1]; 250 µg/mL (≈ 731 µM) against Staphylococcus aureus [2]; 250 µg/mL (≈ 731 µM) in assay [3]; 250 µg/mL (≈ 731 µM) with Bacillus subtilis; 250 µg/mL (≈ 731 µM) in the assay with Bacillus cereus; 250 µg/mL (≈ 731 µM) against Micrococcus luteus.
Regarding `S=c1[nH]nc(-c2cccc(Cl)c2)n1-c1ccc(Br)cc1`, the minimal inhibitory concentration (MIC) against Staphylococcus aureus [1] came to 31.2 µg/mL (≈ 85.2 µM); in the assay with Staphylococcus aureus [2], 31.2 µg/mL (≈ 85.2 µM); in assay [3], 31.2 µg/mL (≈ 85.2 µM); in the assay on Bacillus subtilis, 15.6 µg/mL (≈ 42.6 µM); against Bacillus cereus it was 15.6 µg/mL (≈ 42.6 µM); in the assay with Micrococcus luteus it was 31.2 µg/mL (≈ 85.2 µM).
Take `S=c1[nH]nc(-c2cccc(Cl)c2)n1-c1ccc(I)cc1`: the minimal inhibitory concentration (MIC) is 250 µg/mL (≈ 604 µM) in the assay on Staphylococcus aureus [1]; 500 µg/mL (≈ 1210 µM) in the assay with Staphylococcus aureus [2]; 250 µg/mL (≈ 604 µM) in assay [3]; 31.2 µg/mL (≈ 75.5 µM) against Bacillus subtilis; 250 µg/mL (≈ 604 µM) in the assay on Bacillus cereus; over 1000 µg/mL in the assay with Micrococcus luteus.
Consider `S=c1[nH]nc(-c2cccc(Cl)c2)n1-c1ccc(Cl)cc1`, for which the MIC (in the assay on Staphylococcus aureus [1]; against Staphylococcus aureus [2]; in assay [3]; in the assay with Bacillus subtilis; against Bacillus cereus; in the assay on Micrococcus luteus) was 125 µg/mL (≈ 388 µM) in each case.
Consider `Fc1cccc(F)c1-n1c(-c2cccc(Cl)c2)n[nH]c1=S`, for which the MIC against Staphylococcus aureus [1] is 250 µg/mL (≈ 772 µM); against Staphylococcus aureus [2], 250 µg/mL (≈ 772 µM); in assay [3], 250 µg/mL (≈ 772 µM); against Bacillus subtilis, 500 µg/mL (≈ 1540 µM); against Bacillus cereus, 250 µg/mL (≈ 772 µM); in the assay with Micrococcus luteus, 125 µg/mL (≈ 386 µM).
